Measured values from patent publication US20110160193A1, “New Benzothiazinone Derivatives and Their Use as Antibacterial Agents” (Leibniz Institute for Natural Product Research and …, priority 2006, published 2011).
Values after ≈ are worked out from the molar mass of the structure shown. Where two headings read alike, the source gives them in different places.

How the values were obtained:
[1] = test system: Mycobacterium smegmatis SG 987; experiment: MIC by micro broth dilution method in Mueller-Hinton broth (NCCLS); assay type: cell-based
[2] = test system: M. vaccae IMET 1010670; experiment: as above; assay type: cell-based
[3] = test system: M. fortuitum B; experiment: as above; assay type: cell-based
[4] = test system: Mycobacterium tuberculosis H37Rv; experiment: Murine TB model, hematogenously disseminated tuberculosis; assay type: in vivo, BALB/c line mice; settings: 10 animals per group
[5] = Toxicity after per os administration; assay type: in vivo; settings: mice
Protocol: The compound of the invention (especially compound no 2=example 1 in the embodiments), is non toxic after per os administration of doses ranging up to 2000 mg/kg was the compound was well endured by animals in the first and 24 next coming hours after introducing. […] LD50 for compound 2 is >2000 mg/kg.

[6] = test system: Mycobacterium tuberculosis clinical isolate 6341; experiment: MIC and MBC in liquid Shkolnikova medium / solid Lowenstein-Jensen medium; assay type: cell-based
[7] = Mycolicibacterium smegmatis, SG987
[8] = Mycolicibacterium vaccae, IMET1010670

**Q.** Which MIC ([1]; Mycolicibacterium smegmatis, SG987, M. smegmatis, read-out: MIC) does the source give for `N#Cc1cc([N+](=O)[O-])c2sc(N3CCC4(CC3)OCCCO4)nc(=O)c2c1` [Compound 11, 2-(1,5-dioxa-9-azaspiro[5.5]undec-9-yl)-8-nitro-4-oxo-1,3-benzothiazine-6-carbonitrile] here?
**A.** 0.05 µg/mL (≈ 0.129 µM)

**Q.** What about the MIC ([2]; Mycolicibacterium vaccae, IMET1010670, M. vaccae, read-out: MIC) of the same compound?
**A.** 0.00625 µg/mL (≈ 0.0161 µM)

**Q.** What about the MIC ([3]; Mycolicibacterium fortuitum, M. fortuitum, read-out: MIC) of the same compound?
**A.** 0.025 µg/mL (≈ 0.0644 µM)

**Q.** And the melting point?
**A.** 230 to 232 °C

**Q.** With `NNC(=O)c1ccncc1` [Isoniazid, reference compound] as the compound, how does the Survival of animals ([4]; day of treatment 1, 25 mg/kg) read?
**A.** 10

**Q.** What about the Survival of animals ([4]; day of treatment 2, 25 mg/kg) of the same compound?
**A.** 10

**Q.** What about the Survival of animals ([4]; day of treatment 3, 25 mg/kg) of the same compound?
**A.** 10

**Q.** And the Survival of animals ([4]; day of treatment 4, 25 mg/kg)?
**A.** 10

**Q.** And the Survival of animals ([4]; day of treatment 5, 25 mg/kg)?
**A.** 10

**Q.** What about the Survival of animals ([4]; day of treatment 6, 25 mg/kg) of the same compound?
**A.** 10

**Q.** What about the Survival of animals ([4]; day of treatment 7, 25 mg/kg) of the same compound?
**A.** 10

**Q.** And the Survival of animals ([4]; day of treatment 8, 25 mg/kg)?
**A.** 10

**Q.** What about the Survival of animals ([4]; day of treatment 9, 25 mg/kg) of the same compound?
**A.** 10

**Q.** What about the Survival of animals ([4]; day of treatment 10, 25 mg/kg) of the same compound?
**A.** 10

**Q.** And the Survival of animals ([4]; day of treatment 11, 25 mg/kg)?
**A.** 10

**Q.** And the Survival of animals ([4]; day of treatment 12, 25 mg/kg)?
**A.** 10

**Q.** What about the Survival of animals ([4]; day of treatment 13, 25 mg/kg) of the same compound?
**A.** 10

**Q.** What about the Survival of animals ([4]; day of treatment 14, 25 mg/kg) of the same compound?
**A.** 10

**Q.** And the Survival of animals ([4]; day of treatment 15, 25 mg/kg)?
**A.** 10

**Q.** And the Survival of animals ([4]; day of treatment 16, 25 mg/kg)?
**A.** 10

**Q.** And the Survival of animals ([4]; day of treatment 17, 25 mg/kg)?
**A.** 10

**Q.** And the Survival of animals ([4]; day of treatment 18, 25 mg/kg)?
**A.** 10

**Q.** What about the Survival of animals ([4]; day of treatment 19, 25 mg/kg) of the same compound?
**A.** 10

**Q.** What about the Survival of animals ([4]; day of treatment 20, 25 mg/kg) of the same compound?
**A.** 10

**Q.** What about the Survival of animals ([4]; day of treatment 21, 25 mg/kg) of the same compound?
**A.** 10

**Q.** And the Survival of animals ([4]; day of treatment 22, 25 mg/kg)?
**A.** 10

**Q.** And the Survival of animals ([4]; day of treatment 23, 25 mg/kg)?
**A.** 10

**Q.** And the Survival of animals ([4]; day of treatment 24, 25 mg/kg)?
**A.** 10

**Q.** What about the Survival of animals ([4]; day of treatment 25, 25 mg/kg) of the same compound?
**A.** 10

**Q.** And the Survival of animals ([4]; day of treatment 26, 25 mg/kg)?
**A.** 10

**Q.** What about the Survival of animals ([4]; day of treatment 27, 25 mg/kg) of the same compound?
**A.** 100%

**Q.** What does the source list for `CC1COC2(CCN(c3nc(=O)c4cc(C(F)(F)F)cc([N+](=O)[O-])c4s3)CC2)O1` (stereo not drawn) [Compound 2, 2-(2-methyl-1,4-dioxa-8-azaspiro[4.5]dec-8-yl)-8-nitro-6-(trifluoro-methyl)-1,3-benzothiazin-4-one]?
**A.** Survival of animals ([4]; day of treatment 1, 12 mg/kg): 10; Survival of animals ([4]; day of treatment 1, 25 mg/kg): 10; Survival of animals ([4]; day of treatment 2, 12 mg/kg): 10; Survival of animals ([4]; day of treatment 2, 25 mg/kg): 10; Survival of animals ([4]; day of treatment 3, 12 mg/kg): 10; Survival of animals ([4]; day of treatment 3, 25 mg/kg): 10; Survival of animals ([4]; day of treatment 4, 12 mg/kg): 10; Survival of animals ([4]; day of treatment 4, 25 mg/kg): 10; Survival of animals ([4]; day of treatment 5, 12 mg/kg): 10; Survival of animals ([4]; day of treatment 5, 25 mg/kg): 10; Survival of animals ([4]; day of treatment 6, 12 mg/kg): 10; Survival of animals ([4]; day of treatment 6, 25 mg/kg): 10; Survival of animals ([4]; day of treatment 7, 12 mg/kg): 10; Survival of animals ([4]; day of treatment 7, 25 mg/kg): 10; Survival of animals ([4]; day of treatment 8, 12 mg/kg): 10; Survival of animals ([4]; day of treatment 8, 25 mg/kg): 10; Survival of animals ([4]; day of treatment 9, 12 mg/kg): 10; Survival of animals ([4]; day of treatment 9, 25 mg/kg): 10; Survival of animals ([4]; day of treatment 10, 12 mg/kg): 10; Survival of animals ([4]; day of treatment 10, 25 mg/kg): 10; Survival of animals ([4]; day of treatment 11, 12 mg/kg): 10; Survival of animals ([4]; day of treatment 11, 25 mg/kg): 10; Survival of animals ([4]; day of treatment 12, 12 mg/kg): 10; Survival of animals ([4]; day of treatment 12, 25 mg/kg): 10; Survival of animals ([4]; day of treatment 13, 12 mg/kg): 10; Survival of animals ([4]; day of treatment 13, 25 mg/kg): 10; Survival of animals ([4]; day of treatment 14, 12 mg/kg): 10; Survival of animals ([4]; day of treatment 14, 25 mg/kg): 10; Survival of animals ([4]; day of treatment 15, 12 mg/kg): 10; Survival of animals ([4]; day of treatment 15, 25 mg/kg): 10; Survival of animals ([4]; day of treatment 16, 12 mg/kg): 10; Survival of animals ([4]; day of treatment 16, 25 mg/kg): 10; Survival of animals ([4]; day of treatment 17, 12 mg/kg): 10; Survival of animals ([4]; day of treatment 17, 25 mg/kg): 10; Survival of animals ([4]; day of treatment 18, 12 mg/kg): 10; Survival of animals ([4]; day of treatment 18, 25 mg/kg): 10; Survival of animals ([4]; day of treatment 19, 12 mg/kg): 10; Survival of animals ([4]; day of treatment 19, 25 mg/kg): 10; Survival of animals ([4]; day of treatment 20, 12 mg/kg): 10; Survival of animals ([4]; day of treatment 20, 25 mg/kg): 10; Survival of animals ([4]; day of treatment 21, 12 mg/kg): 10; Survival of animals ([4]; day of treatment 21, 25 mg/kg): 10; Survival of animals ([4]; day of treatment 22, 12 mg/kg): 10; Survival of animals ([4]; day of treatment 22, 25 mg/kg): 10; Survival of animals ([4]; day of treatment 23, 12 mg/kg): 10; Survival of animals ([4]; day of treatment 23, 25 mg/kg): 10; Survival of animals ([4]; day of treatment 24, 12 mg/kg): 10; Survival of animals ([4]; day of treatment 24, 25 mg/kg): 10; Survival of animals ([4]; day of treatment 25, 12 mg/kg): 10; Survival of animals ([4]; day of treatment 25, 25 mg/kg): 10; Survival of animals ([4]; day of treatment 26, 12 mg/kg): 10; Survival of animals ([4]; day of treatment 26, 25 mg/kg): 10; Survival of animals ([4]; day of treatment 27, 12 mg/kg): 100%; Survival of animals ([4]; day of treatment 27, 25 mg/kg): 100%; Toxicity after per os administration ([5]; doses ranging up to 2000 mg/kg, 7 days of investigations): non toxic; LD50 ([5]; per os): > 2000 mg/kg

**Q.** For `CCOC1(OCC)CCN(c2nc(=O)c3cc([N+](=O)[O-])cc([N+](=O)[O-])c3s2)CC1` [Compound 6, 2-(4,4-diethoxypiperidin-1-yl)-6,8-dinitro-1,3-benzothiazin-4-one], which melting point is on record?
**A.** 179 to 181 °C

**Q.** With `O=c1nc(N2CCC3(CC2)OCCO3)sc2c([N+](=O)[O-])cc([N+](=O)[O-])cc12` [Compound 3, 2-(1,4-dioxa-8-azaspiro[4.5]dec-8-yl)-6,8-dinitro-1,3-benzothiazin-4-one] as the compound, how does the MIC [1, 7] read?
**A.** 0.2 µg/mL (≈ 0.507 µM)

**Q.** What about the MIC [2, 8] of the same compound?
**A.** 0.0015 µg/mL (≈ 0.0038 µM)

**Q.** And the MIC ([3]; Mycolicibacterium fortuitum)?
**A.** 0.006 µg/mL (≈ 0.0152 µM)

**Q.** And the melting point?
**A.** 271 to 273 °C

**Q.** Which melting point does the source give for `N#Cc1cc([N+](=O)[O-])c2sc(N3CCC4(CC3)OCCO4)nc(=O)c2c1` [Compound 9, 2-(1,4-dioxa-8-azaspiro[4.5]dec-8-yl)-8-nitro-4-oxo-1,3-benzothiazine-6-carbonitrile] here?
**A.** 217 to 220 °C

**Q.** For `CC1OC2(CCN(c3nc(=O)c4cc(C(F)(F)F)cc([N+](=O)[O-])c4s3)CC2)OC1C` (stereo not drawn) [Compound 5, 2-(2,3-dimethyl-1,4-dioxa-8-azaspiro[4.5]dec-8-yl)-8-nitro-6-(trifluoromethyl)-1,3-benzothiazin-4-one], which MIC [6] is on record?
**A.** 0.39 µg/mL (≈ 0.876 µM)

**Q.** For `Cc1c([N+](=O)[O-])cc2c(=O)nc(N3CCC4(CC3)OCCO4)sc2c1[N+](=O)[O-]` [Compound 8, 2-(1,4-dioxa-8-azaspiro[4.5]dec-8-yl)-7-methyl-6,8-dinitro-1,3-benzothiazin-4-one], which MIC [1, 7] is on record?
**A.** 0.4 µg/mL (≈ 0.979 µM)

**Q.** What about the MIC [2, 8] of the same compound?
**A.** 0.025 µg/mL (≈ 0.0612 µM)

**Q.** What about the MIC ([3]; Mycolicibacterium fortuitum) of the same compound?
**A.** 0.025 µg/mL (≈ 0.0612 µM)

**Q.** And the melting point?
**A.** 207 to 210 °C

**Q.** With `O=c1nc(N2CCC3(CC2)OCCCCO3)sc2c([N+](=O)[O-])cc([N+](=O)[O-])cc12` [Compound 7, 2-(7,12-dioxa-3-azaspiro[5.6]dodec-3-yl)-6,8-dinitro-1,3-benzothiazin-4-one] as the compound, how does the MIC [1, 7] read?
**A.** 0.78 µg/mL (≈ 1.85 µM)

**Q.** And the MIC [2, 8]?
**A.** 0.003 µg/mL (≈ 0.0071 µM)

**Q.** And the MIC ([3]; Mycolicibacterium fortuitum)?
**A.** 0.003 µg/mL (≈ 0.0071 µM)

**Q.** And the melting point?
**A.** 193 to 195 °C

**Q.** With `CC1COC2(CCN(c3nc(=O)c4cc([N+](=O)[O-])cc([N+](=O)[O-])c4s3)CC2)O1` (stereo not drawn) [Compound 4, 2-(2-methyl-1,4-dioxa-8-azaspiro[4.5]decyl)-6,8-dinitro-1,3-benzothiazin-4-one] as the compound, how does the MIC ([1]; M. smegmatis) read?
**A.** 0.2 µg/mL (≈ 0.49 µM)

**Q.** And the MIC ([2]; M. vaccae)?
**A.** 0.003 µg/mL (≈ 0.00735 µM)

**Q.** And the MIC ([3]; M. fortuitum)?
**A.** 0.003 µg/mL (≈ 0.00735 µM)
